Values quoted from earlier work as cited in patent publication US7745427B2, “CGRP receptor antagonists” (Merck Sharp & Dohme Corp., priority 2004, dated 2010).
No end group written: not given here.

How the values were obtained:
facial blood flow [1] = details: marmoset; Doods et al. 2000
[2] = system: acute attacks of migraine; details: clinical trials; Olesen et al. 2004
middle meningeal artery = details: rats, prior administration; Williamson et al. 1997
facial blood flow [3] = details: rat; Escott et al. 1995

Compound	increase in facial blood flow (facial blood flow [1])	treating acute attacks of migraine [2]	increase in diameter of the middle meningeal artery (middle meningeal artery)	increased facial blood flow (facial blood flow [3])
NCCCC[C@H](NC(=O)[C@@H](Cc1cc(Br)c(O)c(Br)c1)NC(=O)N1CCC(N2Cc3ccccc3NC2=O)CC1)C(=O)N1CCN(c2ccncc2)CC1 [BIBN4096BS]	blocked	effective		
CGRP(8-37): "a peptide CGRP antagonist" (VTHRLAGLLSRSGGVVKNNFVPTNVGSKAF; ends and bridges not checked; UniProt P06881 90-119, looked up, fragment)			blocked	inhibited
